In ChEMBL document CHEMBL4507303, “Data for DCP probe TP-004” (2021):

How the values were obtained:
[1] = target: Serine/threonine-protein kinase TAO2 (Homo sapiens) (UniProt Q9UL54); settings: Compound concentration 1000.0 nM
[2] = target: Testis-specific serine/threonine-protein kinase 1 (Homo sapiens) (UniProt Q9BXA7); settings: Compound concentration 1000.0 nM
[3] = target: Ephrin type-A receptor 7 (Homo sapiens) (UniProt Q15375); settings: Compound concentration 1000.0 nM
[4] = target: Dual specificity tyrosine-phosphorylation-regulated kinase 1A (Homo sapiens) (UniProt Q13627); settings: Compound concentration 1000.0 nM
[5] = target: Fibroblast growth factor receptor 3 (Homo sapiens) (UniProt P22607); settings: Compound concentration 1000.0 nM
[6] = tested on: Receptor-type tyrosine-protein kinase FLT3 (Homo sapiens), P36888 [N841I]; settings: Compound concentration 1000.0 nM
[7] = target: Cyclin-dependent kinase 4 (Homo sapiens) (UniProt P11802); settings: Compound concentration 1000.0 nM
[8] = target: Macrophage colony-stimulating factor 1 receptor (Homo sapiens) (UniProt P07333); settings: Compound concentration 1000.0 nM
[9] = target: Serine/threonine-protein kinase SIK3 (Homo sapiens) (UniProt Q9Y2K2); settings: Compound concentration 1000.0 nM
[10] = target: Tyrosine-protein kinase ZAP-70 (Homo sapiens) (UniProt P43403); settings: Compound concentration 1000.0 nM
[11] = target: Serine/threonine-protein kinase 17B (Homo sapiens) (UniProt O94768); settings: Compound concentration 1000.0 nM
Chain of Serine/threonine-protein kinase 17B (Homo sapiens) (O94768 whole entry): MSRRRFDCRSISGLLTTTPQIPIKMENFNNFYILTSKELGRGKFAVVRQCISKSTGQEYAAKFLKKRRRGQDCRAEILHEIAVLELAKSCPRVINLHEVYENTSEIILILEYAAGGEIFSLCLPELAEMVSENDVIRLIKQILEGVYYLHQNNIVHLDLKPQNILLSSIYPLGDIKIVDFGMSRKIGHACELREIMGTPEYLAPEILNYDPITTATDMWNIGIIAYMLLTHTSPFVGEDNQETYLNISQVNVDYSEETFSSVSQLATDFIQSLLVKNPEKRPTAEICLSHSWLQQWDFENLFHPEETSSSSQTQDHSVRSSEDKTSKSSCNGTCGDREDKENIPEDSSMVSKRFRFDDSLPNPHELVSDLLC

[12] = target: Serine/threonine-protein kinase PAK 5 (Homo sapiens) (UniProt Q9P286); settings: Compound concentration 1000.0 nM
[13] = target: Macrophage-stimulating protein receptor (Homo sapiens) (UniProt Q04912); settings: Compound concentration 1000.0 nM
[14] = target: Serine/threonine-protein kinase 32A (Homo sapiens) (UniProt Q8WU08); settings: Compound concentration 1000.0 nM
Chain of Serine/threonine-protein kinase 32A (Homo sapiens) (Q8WU08 whole entry): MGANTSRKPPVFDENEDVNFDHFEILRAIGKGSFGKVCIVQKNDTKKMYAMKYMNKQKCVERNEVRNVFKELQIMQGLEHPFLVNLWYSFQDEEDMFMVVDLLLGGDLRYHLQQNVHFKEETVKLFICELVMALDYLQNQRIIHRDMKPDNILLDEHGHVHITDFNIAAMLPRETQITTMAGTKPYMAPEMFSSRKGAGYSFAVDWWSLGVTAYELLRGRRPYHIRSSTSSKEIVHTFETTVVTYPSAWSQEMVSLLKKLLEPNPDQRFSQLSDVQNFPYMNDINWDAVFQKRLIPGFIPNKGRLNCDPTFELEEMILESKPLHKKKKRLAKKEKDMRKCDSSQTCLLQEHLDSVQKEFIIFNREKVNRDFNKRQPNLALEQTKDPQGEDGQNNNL

[15] = target: Mitogen-activated protein kinase kinase kinase 5 (Homo sapiens) (UniProt Q99683); settings: Compound concentration 1000.0 nM
[16] = target: Death-associated protein kinase 2 (Homo sapiens) (UniProt Q9UIK4); settings: Compound concentration 1000.0 nM
[17] = target: Calcium/calmodulin-dependent protein kinase type 1G (Homo sapiens) (UniProt Q96NX5); settings: Compound concentration 1000.0 nM
[18] = target: Protein kinase C epsilon type (Homo sapiens) (UniProt Q02156); settings: Compound concentration 1000.0 nM
Chain of Protein kinase C epsilon type (Homo sapiens) (Q02156 whole entry): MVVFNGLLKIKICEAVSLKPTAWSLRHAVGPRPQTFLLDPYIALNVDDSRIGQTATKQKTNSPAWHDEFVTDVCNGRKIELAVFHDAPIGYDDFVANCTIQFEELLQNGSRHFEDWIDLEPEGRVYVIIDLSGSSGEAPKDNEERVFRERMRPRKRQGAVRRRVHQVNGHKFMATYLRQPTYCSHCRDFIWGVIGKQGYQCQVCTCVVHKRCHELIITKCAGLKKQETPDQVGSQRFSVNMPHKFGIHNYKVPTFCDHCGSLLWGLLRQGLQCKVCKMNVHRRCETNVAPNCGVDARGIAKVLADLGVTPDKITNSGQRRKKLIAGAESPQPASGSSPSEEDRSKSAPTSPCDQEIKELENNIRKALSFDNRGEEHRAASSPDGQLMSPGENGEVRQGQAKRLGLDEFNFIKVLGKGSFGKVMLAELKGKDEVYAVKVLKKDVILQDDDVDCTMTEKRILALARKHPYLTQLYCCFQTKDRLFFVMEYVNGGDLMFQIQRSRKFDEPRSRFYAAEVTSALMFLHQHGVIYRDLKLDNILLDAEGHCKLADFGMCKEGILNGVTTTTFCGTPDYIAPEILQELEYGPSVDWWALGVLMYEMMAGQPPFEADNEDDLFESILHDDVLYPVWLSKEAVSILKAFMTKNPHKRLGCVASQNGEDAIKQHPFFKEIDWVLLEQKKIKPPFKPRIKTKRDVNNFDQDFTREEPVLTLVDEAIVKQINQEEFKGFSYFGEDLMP

[19] = target: Receptor tyrosine-protein kinase erbB-3 (Homo sapiens) (UniProt P21860); settings: Compound concentration 1000.0 nM
[20] = target: Atypical kinase COQ8A, mitochondrial (Homo sapiens) (UniProt Q8NI60); settings: Compound concentration 1000.0 nM
[21] = target: Serine/threonine-protein kinase TAO3 (Homo sapiens) (UniProt Q9H2K8); settings: Compound concentration 1000.0 nM
[22] = target: Kappa-type opioid receptor (Homo sapiens) (UniProt P41145); settings: Compound concentration 10.0 uM
[23] = target: 1-phosphatidylinositol 3-phosphate 5-kinase (Homo sapiens) (UniProt Q9Y2I7); settings: Compound concentration 1000.0 nM
[24] = target: Ephrin type-A receptor 6 (Homo sapiens) (UniProt Q9UF33); settings: Compound concentration 1000.0 nM
[25] = tested on: Serine/threonine-protein kinase B-raf (Homo sapiens), P15056 [V600E]; settings: Compound concentration 1000.0 nM
[26] = target: Rho-associated protein kinase 1 (Homo sapiens) (UniProt Q13464); settings: Compound concentration 1000.0 nM
[27] = target: Vascular endothelial growth factor receptor 3 (Homo sapiens) (UniProt P35916); settings: Compound concentration 1000.0 nM
[28] = tested on: Phosphatidylinositol 4,5-bisphosphate 3-kinase catalytic subunit alpha isoform (Homo sapiens), P42336 [E542K]; settings: Compound concentration 1000.0 nM
[29] = target: Bone morphogenetic protein receptor type-1B (Homo sapiens) (UniProt O00238); settings: Compound concentration 1000.0 nM
[30] = target: Rho-associated protein kinase 2 (Homo sapiens) (UniProt O75116); settings: Compound concentration 1000.0 nM
[31] = target: Cyclin-dependent kinase 8 (Homo sapiens) (UniProt P49336); settings: Compound concentration 1000.0 nM
Chain of Cyclin-dependent kinase 8 (Homo sapiens) (P49336 whole entry): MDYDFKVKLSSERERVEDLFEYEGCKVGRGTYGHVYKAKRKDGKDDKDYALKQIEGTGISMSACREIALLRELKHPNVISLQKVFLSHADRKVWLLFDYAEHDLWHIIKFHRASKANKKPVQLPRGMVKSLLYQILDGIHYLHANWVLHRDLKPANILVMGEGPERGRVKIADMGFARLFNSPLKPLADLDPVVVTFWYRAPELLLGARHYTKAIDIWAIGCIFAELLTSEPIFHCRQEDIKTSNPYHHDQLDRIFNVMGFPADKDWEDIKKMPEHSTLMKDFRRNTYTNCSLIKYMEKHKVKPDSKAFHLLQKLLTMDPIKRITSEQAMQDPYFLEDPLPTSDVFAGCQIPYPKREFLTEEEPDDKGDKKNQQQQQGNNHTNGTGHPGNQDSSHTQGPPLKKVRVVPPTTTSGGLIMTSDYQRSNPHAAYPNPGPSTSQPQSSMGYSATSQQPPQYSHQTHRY

[32] = target: Cyclin-dependent kinase-like 1 (Homo sapiens) (UniProt Q00532); settings: Compound concentration 1000.0 nM
[33] = target: Epithelial discoidin domain-containing receptor 1 (Homo sapiens) (UniProt Q08345); settings: Compound concentration 1000.0 nM
[34] = target: Serine/threonine-protein kinase ICK (Homo sapiens) (UniProt Q9UPZ9); settings: Compound concentration 1000.0 nM
[35] = tested on: Tyrosine-protein kinase ABL1 (Homo sapiens), P00519 [F317I]; settings: Compound concentration 1000.0 nM
[36] = target: Ephrin type-A receptor 5 (Homo sapiens) (UniProt P54756); settings: Compound concentration 1000.0 nM
[37] = target: Sodium-dependent dopamine transporter (Homo sapiens, UniProt Q01959); settings: Compound concentration 10.0 uM
[38] = tested on: eIF-2-alpha kinase GCN2 (Homo sapiens), Q9P2K8 [S808G]; settings: Compound concentration 1000.0 nM
Chain of eIF-2-alpha kinase GCN2 (Homo sapiens), Q9P2K8 [S808G] (Q9P2K8 whole entry S808G): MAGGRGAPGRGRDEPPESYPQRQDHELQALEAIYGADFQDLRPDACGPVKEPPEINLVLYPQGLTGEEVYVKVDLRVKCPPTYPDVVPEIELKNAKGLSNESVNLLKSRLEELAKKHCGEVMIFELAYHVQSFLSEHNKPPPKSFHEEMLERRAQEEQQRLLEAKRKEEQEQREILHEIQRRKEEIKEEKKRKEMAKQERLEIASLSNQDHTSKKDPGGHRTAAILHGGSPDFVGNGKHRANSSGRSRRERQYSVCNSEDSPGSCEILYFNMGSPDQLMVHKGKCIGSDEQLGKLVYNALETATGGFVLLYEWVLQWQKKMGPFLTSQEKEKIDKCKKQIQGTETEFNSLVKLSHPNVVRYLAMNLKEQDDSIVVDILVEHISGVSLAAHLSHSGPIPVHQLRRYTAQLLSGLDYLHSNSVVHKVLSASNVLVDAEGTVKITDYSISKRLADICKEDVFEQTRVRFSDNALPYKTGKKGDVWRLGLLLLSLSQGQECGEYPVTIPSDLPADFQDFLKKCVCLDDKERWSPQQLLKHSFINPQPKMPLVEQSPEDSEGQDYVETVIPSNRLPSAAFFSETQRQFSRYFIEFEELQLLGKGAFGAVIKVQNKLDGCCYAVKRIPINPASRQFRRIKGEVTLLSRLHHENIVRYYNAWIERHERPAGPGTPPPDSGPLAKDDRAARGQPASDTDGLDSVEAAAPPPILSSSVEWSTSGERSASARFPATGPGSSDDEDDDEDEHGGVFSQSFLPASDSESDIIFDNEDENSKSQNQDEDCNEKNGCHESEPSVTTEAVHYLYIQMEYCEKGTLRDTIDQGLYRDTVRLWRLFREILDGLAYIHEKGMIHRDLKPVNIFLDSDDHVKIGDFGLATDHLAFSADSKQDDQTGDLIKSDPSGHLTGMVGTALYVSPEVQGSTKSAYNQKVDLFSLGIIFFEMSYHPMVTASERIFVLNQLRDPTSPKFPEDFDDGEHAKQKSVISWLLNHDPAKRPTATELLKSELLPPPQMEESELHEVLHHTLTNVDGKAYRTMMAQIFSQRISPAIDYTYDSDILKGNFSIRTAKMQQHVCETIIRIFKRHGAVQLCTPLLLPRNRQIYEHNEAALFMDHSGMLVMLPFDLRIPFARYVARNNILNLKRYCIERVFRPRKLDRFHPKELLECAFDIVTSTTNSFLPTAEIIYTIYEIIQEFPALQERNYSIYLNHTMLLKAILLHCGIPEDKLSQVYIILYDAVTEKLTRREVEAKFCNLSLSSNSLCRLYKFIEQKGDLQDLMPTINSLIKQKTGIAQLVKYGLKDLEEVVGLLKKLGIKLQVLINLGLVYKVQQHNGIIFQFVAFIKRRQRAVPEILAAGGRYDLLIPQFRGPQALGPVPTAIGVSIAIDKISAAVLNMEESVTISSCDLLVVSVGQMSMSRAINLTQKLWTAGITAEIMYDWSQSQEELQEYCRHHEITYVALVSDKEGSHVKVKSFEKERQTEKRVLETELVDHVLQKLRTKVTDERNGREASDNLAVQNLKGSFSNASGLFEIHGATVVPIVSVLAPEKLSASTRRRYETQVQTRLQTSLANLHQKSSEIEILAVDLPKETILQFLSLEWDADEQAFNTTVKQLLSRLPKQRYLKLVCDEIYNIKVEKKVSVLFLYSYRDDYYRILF

[39] = target: Cyclin-dependent kinase 2 (Homo sapiens) (UniProt P24941); settings: Compound concentration 1000.0 nM
[40] = target: Cyclin-dependent kinase 13 (Homo sapiens) (UniProt Q14004); settings: Compound concentration 1000.0 nM
[41] = target: Insulin receptor-related protein (Homo sapiens) (UniProt P14616); settings: Compound concentration 1000.0 nM
Chain of Insulin receptor-related protein (Homo sapiens) (P14616 27-742 limits assumed): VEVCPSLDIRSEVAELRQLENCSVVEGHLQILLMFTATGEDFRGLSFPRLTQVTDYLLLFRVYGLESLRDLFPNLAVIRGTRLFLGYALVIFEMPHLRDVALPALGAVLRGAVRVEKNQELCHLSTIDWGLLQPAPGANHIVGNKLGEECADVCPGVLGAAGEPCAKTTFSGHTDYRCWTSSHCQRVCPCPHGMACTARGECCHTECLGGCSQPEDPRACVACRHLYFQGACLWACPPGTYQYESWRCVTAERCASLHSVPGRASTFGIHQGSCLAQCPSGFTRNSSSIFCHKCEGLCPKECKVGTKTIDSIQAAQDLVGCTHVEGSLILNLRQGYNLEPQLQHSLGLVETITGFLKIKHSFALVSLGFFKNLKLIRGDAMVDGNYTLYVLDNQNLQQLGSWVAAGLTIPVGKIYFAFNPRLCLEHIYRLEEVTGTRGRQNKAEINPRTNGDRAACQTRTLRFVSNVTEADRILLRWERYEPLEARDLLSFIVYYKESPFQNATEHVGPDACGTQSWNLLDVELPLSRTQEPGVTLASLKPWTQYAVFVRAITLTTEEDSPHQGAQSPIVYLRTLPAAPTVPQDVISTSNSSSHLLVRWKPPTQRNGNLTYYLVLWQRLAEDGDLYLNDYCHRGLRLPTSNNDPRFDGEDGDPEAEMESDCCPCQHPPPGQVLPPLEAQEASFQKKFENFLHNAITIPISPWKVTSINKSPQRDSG
Chain of Insulin receptor-related protein (Homo sapiens) (P14616 747-1297 limits assumed): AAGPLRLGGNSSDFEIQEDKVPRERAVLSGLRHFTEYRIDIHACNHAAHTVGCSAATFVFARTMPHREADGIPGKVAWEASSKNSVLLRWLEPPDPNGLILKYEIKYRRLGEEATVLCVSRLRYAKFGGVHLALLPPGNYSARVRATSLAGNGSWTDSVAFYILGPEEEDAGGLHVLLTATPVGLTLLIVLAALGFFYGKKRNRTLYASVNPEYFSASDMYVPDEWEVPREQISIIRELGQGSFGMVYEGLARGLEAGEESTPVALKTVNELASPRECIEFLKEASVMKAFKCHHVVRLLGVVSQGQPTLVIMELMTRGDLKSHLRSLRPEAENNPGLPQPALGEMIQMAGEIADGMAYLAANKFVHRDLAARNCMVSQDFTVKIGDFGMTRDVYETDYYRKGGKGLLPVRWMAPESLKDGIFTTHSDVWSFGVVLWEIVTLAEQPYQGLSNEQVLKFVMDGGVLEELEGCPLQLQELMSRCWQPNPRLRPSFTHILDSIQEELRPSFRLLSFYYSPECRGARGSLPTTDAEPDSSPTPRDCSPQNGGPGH

[42] = target: Transient receptor potential cation channel subfamily M member 6 (Homo sapiens) (UniProt Q9BX84); settings: Compound concentration 1000.0 nM
[43] = target: Ephrin type-A receptor 4 (Homo sapiens) (UniProt P54764); settings: Compound concentration 1000.0 nM
[44] = target: Tyrosine-protein kinase ABL1 (Homo sapiens) (UniProt P00519); settings: Compound concentration 1000.0 nM
[45] = target: Serine/threonine-protein kinase MAK (Homo sapiens) (UniProt P20794); settings: Compound concentration 1000.0 nM

SMILES: Cc1nc(N2CC[C@@H](O)C2)ncc1-c1cc(C(F)(F)F)cc2[nH]ncc12 [TP-004]
- residual activity [1]: 100%
- residual activity [2]: 98%
- residual activity [3]: 63%
- residual activity [4]: 73%
- residual activity [5]: 100%
- residual activity [6]: 88%
- residual activity [7]: 71%
- residual activity [8]: 89%
- residual activity [9]: 53%
- residual activity [10]: 65%
- residual activity [11]: 99%
- residual activity [12]: 99%
- residual activity [13]: 100%
- residual activity [14]: 85%
- residual activity [15]: 100%
- residual activity [16]: 100%
- residual activity [17]: 100%
- residual activity [18]: 88%
- residual activity [19]: 100%
- residual activity [20]: 100%
- residual activity [21]: 82%
- inhibition [22]: 7.69%
- residual activity [23]: 88%
- residual activity [24]: 100%
- residual activity [25]: 77%
- residual activity [26]: 91%
- residual activity [27]: 100%
- residual activity [28]: 52%
- residual activity [29]: 60%
- residual activity [30]: 77%
- residual activity [31]: 88%
- residual activity [32]: 77%
- residual activity [33]: 100%
- residual activity [34]: 100%
- residual activity [35]: 87%
- residual activity [36]: 100%
- inhibition [37]: 75.2%
- residual activity [38]: 76%
- residual activity [39]: 94%
- residual activity [40]: 90%
- residual activity [41]: 87%
- residual activity [42]: 52%
- residual activity [43]: 100%
- residual activity [44]: 83%
- residual activity [45]: 100%
